In patent US20070269494A1, “Compositions and methods for enhancing active agent absorption” (Nexus Pharma, Inc., priority 2006, published 2007):

Test system: Sprague-Dawley rats
Experiment: Blood glucose depression by intracolonically administered bovine pancreatic insulin with absorption enhancer
Type: in vivo
Details: for Blood glucose as % of basal level: enhancer 0 mg/kg (insulin without enhancer), intracolonic, rats
Protocol: It is neutralized by 1 equivalent of sodium hydroxide. The pH is adjusted to 7-8 by 1N HCl and saturated sodium bicarbonate. Bovine pancreatic insulin (1.75 mL; Sigma, 10 mg/mL; in pH 8.2 HEPES buffer) is added and mixed by gentle swirling. The solution density is determined so that the required dose may be calculated.
The solution is then given to Sprague-Dawley rats (female, 250-300 g, n=3), intracolonically. Blood samples are taken from the tail vein and glucose levels measured using an OneTouch® UltraSmart® blood glucose meter.
As insulin reduces glucose levels in the blood, a depression in glucose levels indicates insulin reaching the blood efficaciously.

Compound	50% depression at 60 min. (blood glucose from basal level) (enhancer dose 200 mg/Kg, insulin 7 mg/Kg, procedure of Example 12)	Blood glucose as % of basal level (0 min) [%]	Blood glucose as % of basal level (30 min) [%]	Blood glucose as % of basal level (60 min) [%]	Blood glucose as % of basal level (90 min) [%]	Blood glucose as % of basal level (120 min) [%]	Blood glucose as % of basal level (150 min) [%]	Blood glucose as % of basal level (180 min) [%]	Blood glucose as % of basal level (210 min) [%]	Blood glucose as % of basal level (240 min) [%]
COC(=O)c1ccc(NC(=O)CCC(=O)O)cc1O [Example 20, methyl 4-(3-carboxy-propionylamino)]	negative (a 50% reduction in glucose levels was not reached in 60 minutes)									
bovine pancreatic insulin: Bovine pancreatic insulin (Sigma, 10 mg/mL; in pH 8.2 HEPES buffer), the active agent co-administered		100	94 ± 4	102 ± 7	105 ± 3	107 ± 7	94 ± 7	111 ± 7	113 ± 4	100 ± 7
